According to US7816408B2, “Calcium receptor active compounds” (NPS Pharmaceuticals, Inc., priority 2002, dated 2010):
pEC50: −log10 of the molar value.

Tests used:
human calcium receptor = target: T1, human calcium receptor (Homo sapiens, UniProt P41180); experiment: Activity on calcium receptors: fluo-3 fluorescence in HEK293 cells transfected with human calcium receptor gene; format: cell-based; settings: HEK293 cells transfected with plasmid pHuPCaR4.0 (human calcium receptor gene), loaded with fluo-3; 1 mM CaCl2, 1 mM MgCl2
T1 construct: expressed in transfected cells; host or cells: HEK293
T1 sequence (P41180 20-1078): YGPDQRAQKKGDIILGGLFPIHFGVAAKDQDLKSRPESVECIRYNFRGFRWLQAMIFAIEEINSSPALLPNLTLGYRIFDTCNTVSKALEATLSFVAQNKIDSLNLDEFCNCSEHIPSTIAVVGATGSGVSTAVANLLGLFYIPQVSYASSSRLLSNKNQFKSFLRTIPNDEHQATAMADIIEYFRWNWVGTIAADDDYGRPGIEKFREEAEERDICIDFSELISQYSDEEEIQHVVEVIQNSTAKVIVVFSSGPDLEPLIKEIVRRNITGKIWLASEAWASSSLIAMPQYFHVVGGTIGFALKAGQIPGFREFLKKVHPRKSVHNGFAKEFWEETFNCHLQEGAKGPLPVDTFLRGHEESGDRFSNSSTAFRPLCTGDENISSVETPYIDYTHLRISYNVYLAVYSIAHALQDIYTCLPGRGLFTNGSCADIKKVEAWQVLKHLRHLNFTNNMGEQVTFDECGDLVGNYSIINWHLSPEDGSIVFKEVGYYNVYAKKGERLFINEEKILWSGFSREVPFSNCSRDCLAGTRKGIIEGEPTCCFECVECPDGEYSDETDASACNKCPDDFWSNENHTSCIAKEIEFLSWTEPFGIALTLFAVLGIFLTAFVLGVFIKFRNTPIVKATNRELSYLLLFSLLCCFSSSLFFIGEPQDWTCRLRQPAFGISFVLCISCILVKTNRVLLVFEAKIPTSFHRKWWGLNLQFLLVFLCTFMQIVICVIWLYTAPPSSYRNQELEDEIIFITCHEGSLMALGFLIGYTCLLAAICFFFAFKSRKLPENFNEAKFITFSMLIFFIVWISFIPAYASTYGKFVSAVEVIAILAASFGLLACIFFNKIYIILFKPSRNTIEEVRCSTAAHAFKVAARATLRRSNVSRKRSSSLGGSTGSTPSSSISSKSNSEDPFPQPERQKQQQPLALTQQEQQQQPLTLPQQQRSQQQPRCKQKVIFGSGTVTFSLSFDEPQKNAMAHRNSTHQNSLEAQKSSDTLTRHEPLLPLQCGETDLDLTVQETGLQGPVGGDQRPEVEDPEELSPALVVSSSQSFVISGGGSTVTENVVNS
Summary of the method: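 HEK293 cells transfected with human calcium receptor plasmid, loaded 1 h at 37 °C with about 5 μM fluo-3/AM. Cells then rinsed into HEPES-buffered HBSS with 1 mM CaCl2 and 1 mM MgCl2. Fluorescence read at 485/540 nm after compound addition.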

normal male SD rats = experiment: Plasma Ca^2+ level of rats after single oral administration; format: in vivo; settings: rat, mean of six animals; for Plasma Ca^2+ (mmol/l) 1 hr: 1 hr after single oral dose 30 μmol/kg; for Plasma Ca^2+ (mmol/l) 1 hr / Plasma Ca^2+ (mmol/l) 2 hr / Plasma Ca^2+ (mmol/l) 4 hr / Plasma Ca^2+ (mmol/l) 8 hr / Plasma Ca^2+ (mmol/l) 0 hr / Plasma Ca^2+ (mmol/l) 23 hr (footnote *c, 24 hr column): vehicle 10% cyclodextrin (** 1% sodium-CMC); for Plasma Ca^2+ (mmol/l) 2 hr: 2 hr after single oral dose 30 μmol/kg; for Plasma Ca^2+ (mmol/l) 4 hr: 4 hr after single oral dose 30 μmol/kg; for Plasma Ca^2+ (mmol/l) 8 hr: 8 hr after single oral dose 30 μmol/kg; for Plasma Ca^2+ (mmol/l) 0 hr: 0 hr = before oral administration of 30 μmol/kg; for Plasma Ca^2+ (mmol/l) 23 hr (footnote *c, 24 hr column): 23 hr after single oral dose 30 μmol/kg; for Plasma Ca^2+ (mmol/l) 28 hr (footnote *d, 24 hr column): 28 hr after single oral dose 30 μmol/kg, vehicle 10% cyclodextrin
Summary of the method: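 Normal male SD rats (n=6/group) received a single oral dose of 30 μmol/kg in 10% cyclodextrin or, for some compounds, 1% sodium-CMC; vehicle controls received 2.5 ml/kg. Tail blood was drawn pre-dose and at 30 min and 1, 2, 4, 8 and 24 h for plasma Ca^2+ and serum PTH. PTH was compared with vehicle by Steel's test.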

Compound | pEC50 (human calcium receptor) | Plasma Ca^2+ (mmol/l) 1 hr (normal male SD rats) [mmol/L] | Plasma Ca^2+ (mmol/l) 2 hr (normal male SD rats) [mmol/L] | Plasma Ca^2+ (mmol/l) 4 hr (normal male SD rats) [mmol/L] | Plasma Ca^2+ (mmol/l) 8 hr (normal male SD rats) [mmol/L] | Plasma Ca^2+ (mmol/l) 0 hr (normal male SD rats) [mmol/L] | Plasma Ca^2+ (mmol/l) 23 hr (footnote *c, 24 hr column) (normal male SD rats) | Plasma Ca^2+ (mmol/l) 28 hr (footnote *d, 24 hr column) (normal male SD rats)
C[C@@H](NCCCCSc1c(F)c(F)c(C(F)(F)F)c(F)c1F)c1cccc2ccccc12 [Compound K-2297, N-[(1R)-1-(1-naphthyl)ethyl]-N-(4-{[2,3,5,6-tetrafluoro-4-(trifluoromethyl)phenyl]thio}butyl)amine] | 6.64 | 1.393 | 1.305 | 1.172 | 1.082 | – | – | –
C[C@@H](NCCCCSc1cc(Cl)ccc1Cl)c1cccc2ccccc12 [Compound K-2298, N-{4-[(2,5-dichlorophenyl)thio]butyl}-N-[(1R)-1-(1-naphthyl)ethyl]amine] | 6.47 | 1.348 | 1.265 | 1.187 | 1.100 | – | – | –
Cc1ccc(CN(Cc2ccc(C)cc2)C(=O)CCN[C@H](C)c2cccc3ccccc23)cc1 [Compound K-2300, N1,N1-di(4-methylbenzyl)-3-{[(1R)-1-(1-naphthyl)ethyl]amino}propanamide] | 6.85 | 1.293 | 1.158 | 0.958 | 1.022 | – | 1.397*^c mmol/l | –
C[C@@H](NCCCCCCSc1ccc(OC(F)(F)F)cc1)c1cccc2ccccc12 [Compound K-2301] | 6.10 | 1.237 | 1.165 | 1.077 | 1.075 | 1.397 | 1.350*^c mmol/l | –
Cc1ccc(SCCCCN[C@H](C)c2cccc3ccccc23)c(C)c1 [Compound K-2302, N-{4-[(2,4-dimethylphenyl)thio]butyl}-N-[(1R)-1-(1-naphthyl)ethyl]amine] | 6.30 | 1.238 | 1.130 | 0.978 | 1.010 | – | – | –
Cc1ccc(SC(C)CCCN[C@H](C)c2cccc3ccccc23)c(C)c1 (some centres unmarked) [Compound K-2303] | 6.46 | 1.255 | 1.165 | 1.020 | 1.032 | 1.415 | – | –
Cc1ccc(SCCCCN[C@H](C)c2cccc3ccccc23)cc1 [Compound K-2304, N-{4-[(4-methylphenyl)thio]butyl}-N-[(1R)-1-(1-naphthyl)ethyl]amine] | 7.01 | 1.262 | 1.157 | 1.053 | 1.065 | – | – | –
COc1ccc(CN(Cc2ccc(Cl)c(Cl)c2)C(=O)CCN[C@H](C)c2cccc3ccccc23)cc1 [Compound K-2309, N1-(3,4-dichlorobenzyl)-N1-(4-methoxybenzyl)-3-{[(1R)-1-(1-naphthyl)ethyl]amino}propanamide] | 7.18 | 1.320 | 1.207 | 1.018 | 0.963 | – | – | 1.332*^d mmol/l
COc1ccc(CN(Cc2ccc(OC(F)(F)F)cc2)C(=O)CCN[C@H](C)c2cccc3ccccc23)cc1 [Compound K-2311] | 7.28 | 1.375 | 1.232 | 1.075 | 1.110 | 1.447 | – | –

More lines, main results first:

pEC50 (human calcium receptor) | Compound | Plasma Ca^2+ (mmol/l) 1 hr (normal male SD rats) [mmol/L] | Plasma Ca^2+ (mmol/l) 2 hr (normal male SD rats) [mmol/L] | Plasma Ca^2+ (mmol/l) 4 hr (normal male SD rats) [mmol/L] | Plasma Ca^2+ (mmol/l) 8 hr (normal male SD rats) [mmol/L] | Plasma Ca^2+ (mmol/l) 0 hr (normal male SD rats) [mmol/L] | Plasma Ca^2+ (mmol/l) 23 hr (footnote *c, 24 hr column) (normal male SD rats) | Plasma Ca^2+ (mmol/l) 28 hr (footnote *d, 24 hr column) (normal male SD rats)
7.21 | Cc1ccc(CN(Cc2ccc(Cl)c(Cl)c2)C(=O)CCN[C@H](C)c2cccc3ccccc23)cc1 [Compound K-2294, N1-(3,4-dichlorobenzyl)-N1-(4-methylbenzyl)-3-{[(1R)-1-(1-naphthyl)ethyl]amino}propanamide] | 1.357 | 1.255 | 1.117 | 1.022 | – | – | –
6.66 | C[C@@H](NCCCCCSc1cc(Cl)ccc1Cl)c1cccc2ccccc12 [Compound K-2296, N-{[5-(2,5-dichlorophenyl)thio]pentyl}N-[(1R)-1-(1-naphthyl)ethyl]amine] | 1.340 | 1.195 | 1.113 | 1.083 | 1.410 | – | –
6.82 | Cc1ccc(CN(Cc2ccc(C(F)(F)F)cc2)C(=O)CCN[C@H](C)c2cccc3ccccc23)cc1 [Compound K-2299, N1-(4-methylbenzyl)-N1-[4-(trifluoromethyl)benzyl]-3-{[(1R)-1-(1-naphthyl)ethyl]amino}propanamide] | 1.287 | 1.192 | 0.998 | 0.983 | – | 1.382*^c mmol/l | –
6.96 | Cc1ccc(SCCCCCN[C@H](C)c2cccc3ccccc23)cc1 [Compound K-2305] | 1.242 | 1.170 | 1.098 | 1.202 | 1.415 | – | –
7.23 | Cc1ccc(CN(Cc2ccc(OC(F)(F)F)cc2)C(=O)CCN[C@H](C)c2cccc3ccccc23)cc1 [Compound K-2310, N1-(4-methylbenzyl)-N1-[4-(trifluoromethoxy)benzyl]-3-{[(1R)-1-(1-naphthyl)ethyl]amino}propanamide] | 1.342 | 1.188 | 1.008 | 0.943 | – | – | 1.330*^d mmol/l
